Source: patent US5869494A, “Uses for barbituric acid analogs” (priority 1997, dated 1999)
Where two headings read alike, the source gives them in different places.

Legend:
Format in all cases: cell-based
[1] = system: PC-3 human prostate cancer cells; experiment: Cytotoxicity for prostate cancer cell line PC-3 (MTT assay); conditions: read-out: Percent cell kill; for cytotoxicity at 100 µg/mL: 100 μg/ml; for cytotoxicity at 150 µg/mL: 150 μg/ml; for cytotoxicity at 200 µg/mL: 200 μg/ml
Experimental: (§1) In the following examples, tumor cells were treated with varying concentrations of compounds C1, C2, C4 or C5 dissolved in absolute ethanol. To limit any non-specific toxicity, the final concentration of ethanol was not allowed to exceed 0.5%. Stock concentrations of 5 mg/ml or 20 mg/ml were used. Viability of cells was determined in some studies by the trypan blue dye exclusion method. In other studies, cell viability/proliferation activity was determined by MTT assay by using a kit obtained from Promega, (Promega Corp., Madison, Wis. 53711). For this assay, a 100 μl cell suspension containing 5-10^3 monolayer cells or 1×10^5 suspension cells was placed in the wells of a 96-well microtiter plate. After overnight incubation, cells were treated with different concentrations of the test compound. Control wells received vehicle only. After 24, 48, 72 or 96 h of incubation, 50 μl of MTT dye solution was added. After 4 h of incubation at 37° C., 100 μl of solubilization/stop solution was added. After another h of incubation, cells were mixed using a multi-channel pipet and the absorption of the dye color was recorded at 570 nm using a plate reading absorption spectrophotometer.
(§2) After the incubation period, viability of the cells was determined by MTT assay (Promega Corp., Madison, Wis. 53711).

[2] = system: DU-145 human prostate cancer cells; experiment: Cytotoxicity for prostate cancer cell line DU-145 (MTT assay); conditions: read-out: Percent cell kill; for cytotoxicity at 100 µg/mL: 100 μg/ml; for cytotoxicity at 150 µg/mL: 150 μg/ml; for cytotoxicity at 200 µg/mL: 200 μg/ml
Experimental: as §1, §2

[3] = system: MCF-7 human breast cancer cells; experiment: Cytotoxicity for breast cancer cell line MCF-7 (MTT assay); conditions: read-out: Percent cell kill; for cytotoxicity at 100 µg/mL: 100 μg/ml; for cytotoxicity at 150 µg/mL: 150 μg/ml; for cytotoxicity at 200 µg/mL: 200 μg/ml
Experimental: as §1, §2

[4] = system: BT-20 human breast cancer cells; experiment: Cytotoxicity for breast cancer cell line BT-20 (MTT assay); conditions: read-out: Percent cell kill; for cytotoxicity at 100 µg/mL: 100 μg/ml; for cytotoxicity at 150 µg/mL: 150 μg/ml; for cytotoxicity at 200 µg/mL: 200 μg/ml
Experimental: as §1, §2

[5] = system: Daudi human lymphoma cells; experiment: Cytotoxicity for lymphoma cells (Daudi); conditions: Homo sapiens, Daudi; for cytotoxicity at 100 µg/mL: 100 μg/ml; for cytotoxicity at 150 µg/mL: 150 μg/ml, read-out: % Cytotoxicity; for cytotoxicity at 200 µg/mL: 200 μg/ml
Experimental: as §1
The viability of the cells was
Compounds C4 and C5 were also tested for toxicity against human lymphoma Daudi cells.

[6] = system: L1210 mouse leukemia cells; experiment: Cytotoxicity for leukemia cells (L1210); conditions: for cytotoxicity at 100 µg/mL / cytotoxicity at 150 µg/mL / cytotoxicity at 200 µg/mL: Mus musculus; for cytotoxicity at 100 µg/mL: 100 μg/ml; for cytotoxicity at 150 µg/mL: 150 μg/ml
Experimental: as §1
The viability of the cells was […]

CCCCN1C(=O)C(=O)C(=O)N(CCCC)C1=S [Compound C2, 4,5,6(1H)-pyrimidinetrione, 1,3-dibutyldihydro-2-thioxo]
cytotoxicity at 100 µg/mL ([1]; 24 h, 24 hr): 32.7 ± 6.2%
cytotoxicity at 150 µg/mL ([1]; 24 h, 24 hr): 47 ± 6.7%
cytotoxicity at 200 µg/mL ([1]; 24 h, 24 hr): 57.5 ± 3.5%
cytotoxicity at 100 µg/mL ([1]; 48 h, 48 hr): 46.2 ± 4.1%
cytotoxicity at 150 µg/mL ([1]; 48 h, 48 hr): 70.7 ± 6%
cytotoxicity at 200 µg/mL ([1]; 48 h, 48 hr): 81.5 ± 3.1%
cytotoxicity at 100 µg/mL ([1]; 72 h, 72 hr): 51.5 ± 6.5%
cytotoxicity at 150 µg/mL ([1]; 72 h, 72 hr): 77.7 ± 4.6%
cytotoxicity at 200 µg/mL ([1]; 72 h, 72 hr): 88.5 ± 5.2%
cytotoxicity at 100 µg/mL ([1]; 96 h, 96 hr): 75 ± 1%
cytotoxicity at 150 µg/mL ([1]; 96 h, 96 hr): 88.7 ± 3.2%
cytotoxicity at 200 µg/mL ([1]; 96 h, 96 hr): 95 ± 3.6%
cytotoxicity at 100 µg/mL ([2]; DU-145, 24 h, 24 hr): 0%
cytotoxicity at 150 µg/mL ([2]; DU-145, 24 h, 24 hr): 0%
cytotoxicity at 200 µg/mL ([2]; DU-145, 24 h, 24 hr): 0%
cytotoxicity at 100 µg/mL ([2]; DU-145, 48 h, 48 hr): 0%
cytotoxicity at 150 µg/mL ([2]; DU-145, 48 h, 48 hr): 4.2 ± 3.9%
cytotoxicity at 200 µg/mL ([2]; DU-145, 48 h, 48 hr): 20 ± 3%
cytotoxicity at 100 µg/mL ([2]; DU-145, 72 h, 72 hr): 0%
cytotoxicity at 150 µg/mL ([2]; DU-145, 72 h, 72 hr): 9.2 ± 5.3%
cytotoxicity at 200 µg/mL ([2]; DU-145, 72 h, 72 hr): 36.7 ± 2.1%
cytotoxicity at 100 µg/mL ([2]; DU-145, 96 h, 96 hr): 10 ± 6.1%
cytotoxicity at 150 µg/mL ([2]; DU-145, 96 h, 96 hr): 25.2 ± 7.4%
cytotoxicity at 200 µg/mL ([2]; DU-145, 96 h, 96 hr): 43.7 ± 4.3%
cytotoxicity at 100 µg/mL ([3]; MCF7, 24 h, 24 hr): 9 ± 7%
cytotoxicity at 150 µg/mL ([3]; MCF7, 24 h, 24 hr): 26.3 ± 7.9%
cytotoxicity at 200 µg/mL ([3]; MCF7, 24 h, 24 hr): 40 ± 10.6%
cytotoxicity at 100 µg/mL ([3]; MCF7, 48 h, 48 hr): 16.3 ± 4.8%
cytotoxicity at 150 µg/mL ([3]; MCF7, 48 h, 48 hr): 43.3 ± 7.3%
cytotoxicity at 200 µg/mL ([3]; MCF7, 48 h, 48 hr): 70.3 ± 7.8%
cytotoxicity at 100 µg/mL ([3]; MCF7, 72 h, 72 hr): 33.3 ± 5.4%
cytotoxicity at 150 µg/mL ([3]; MCF7, 72 h, 72 hr): 61 ± 5.6%
cytotoxicity at 200 µg/mL ([3]; MCF7, 72 h, 72 hr): 81.3 ± 3.2%
cytotoxicity at 100 µg/mL ([3]; MCF7, 96 h, 96 hr): 87.7 ± 0.6%
cytotoxicity at 150 µg/mL ([3]; MCF7, 96 h, 96 hr): 97 ± 0.8%
cytotoxicity at 200 µg/mL ([3]; MCF7, 96 h, 96 hr): 94.3 ± 2.1%
cytotoxicity at 100 µg/mL ([4]; BT-20, 24 h, 24 hr): 29.8 ± 6.8%
cytotoxicity at 150 µg/mL ([4]; BT-20, 24 h, 24 hr): 30 ± 4.4%
cytotoxicity at 200 µg/mL ([4]; BT-20, 24 h, 24 hr): 30.3 ± 2.9%
cytotoxicity at 100 µg/mL ([4]; BT-20, 48 h, 48 hr): 51.8 ± 1.9%
cytotoxicity at 150 µg/mL ([4]; BT-20, 48 h, 48 hr): 50 ± 1.7%
cytotoxicity at 200 µg/mL ([4]; BT-20, 48 h, 48 hr): 55.5 ± 8.9%
cytotoxicity at 100 µg/mL ([4]; BT-20, 72 h, 72 hr): 57.5 ± 2.6%
cytotoxicity at 150 µg/mL ([4]; BT-20, 72 h, 72 hr): 60.8 ± 2.8%
cytotoxicity at 200 µg/mL ([4]; BT-20, 72 h, 72 hr): 68.5 ± 3.4%
cytotoxicity at 100 µg/mL ([4]; BT-20, 96 h, 96 hr): 99.9%
cytotoxicity at 150 µg/mL ([4]; BT-20, 96 h, 96 hr): 99.9%
cytotoxicity at 200 µg/mL ([4]; BT-20, 96 h, 96 hr): 99.9%
cytotoxicity at 100 µg/mL ([5]; 24 h): 57.5 ± 3%
cytotoxicity at 150 µg/mL ([5]; 24 h, 24 hr): 81.3 ± 4%
cytotoxicity at 200 µg/mL ([5]; 24 h): 93.2 ± 3.3%
cytotoxicity at 100 µg/mL ([5]; 48 h): 41.5%
cytotoxicity at 150 µg/mL ([5]; 48 h, 48 hr): 92%
cytotoxicity at 200 µg/mL ([5]; 48 h): 88%
% Cytotoxicity ([6]; 200 μg/ml, 24 hr, 1440 min): > 58%
cytotoxicity at 100 µg/mL ([6]; L1210, 24 h, 24 hr): 33.2 ± 2%
cytotoxicity at 150 µg/mL ([6]; L1210, 24 h, 24 hr): 50 ± 4.1%
cytotoxicity at 200 µg/mL ([6]; L1210, 24 h, 200 μg/ml, 24 hr): 58.7 ± 2.6%
cytotoxicity at 100 µg/mL ([6]; L1210, 48 h, 48 hr): 29 ± 3.5%
cytotoxicity at 150 µg/mL ([6]; L1210, 48 h, 48 hr): 53.7 ± 2.5%
cytotoxicity at 200 µg/mL ([6]; L1210, 48 h, 200 μg/ml, 48 hr): 72.5 ± 2.4%
